ChEMBL document CHEMBL3217572, “Preparation and evaluation of BBB-permeable trehalose derivatives as potential therapeutic agents for Huntington's disease” (Medchemcomm, 2013)
The source made the active and inactive calls. No cut-off for these calls is given here.

What was measured:
[1] = Cytotoxicity against african green monkey COS7 cells by MTT assay; type: cell-based; conditions: Chlorocebus aethiops, COS-7
[2] = molecular target: Huntingtin (Homo sapiens) (UniProt P42858); assay: Inhibition of N-terminal GFP-tagged Htt-exon1-Q25 (unknown origin) transfected in HEK293A cells assessed as reduction of Htt-Q103 aggregate formation at 50 uM after 3 days by fluorescence microscopic analysis; type: cell-based; conditions: HEK293-A
Chain of Huntingtin (Homo sapiens) (P42858 whole entry): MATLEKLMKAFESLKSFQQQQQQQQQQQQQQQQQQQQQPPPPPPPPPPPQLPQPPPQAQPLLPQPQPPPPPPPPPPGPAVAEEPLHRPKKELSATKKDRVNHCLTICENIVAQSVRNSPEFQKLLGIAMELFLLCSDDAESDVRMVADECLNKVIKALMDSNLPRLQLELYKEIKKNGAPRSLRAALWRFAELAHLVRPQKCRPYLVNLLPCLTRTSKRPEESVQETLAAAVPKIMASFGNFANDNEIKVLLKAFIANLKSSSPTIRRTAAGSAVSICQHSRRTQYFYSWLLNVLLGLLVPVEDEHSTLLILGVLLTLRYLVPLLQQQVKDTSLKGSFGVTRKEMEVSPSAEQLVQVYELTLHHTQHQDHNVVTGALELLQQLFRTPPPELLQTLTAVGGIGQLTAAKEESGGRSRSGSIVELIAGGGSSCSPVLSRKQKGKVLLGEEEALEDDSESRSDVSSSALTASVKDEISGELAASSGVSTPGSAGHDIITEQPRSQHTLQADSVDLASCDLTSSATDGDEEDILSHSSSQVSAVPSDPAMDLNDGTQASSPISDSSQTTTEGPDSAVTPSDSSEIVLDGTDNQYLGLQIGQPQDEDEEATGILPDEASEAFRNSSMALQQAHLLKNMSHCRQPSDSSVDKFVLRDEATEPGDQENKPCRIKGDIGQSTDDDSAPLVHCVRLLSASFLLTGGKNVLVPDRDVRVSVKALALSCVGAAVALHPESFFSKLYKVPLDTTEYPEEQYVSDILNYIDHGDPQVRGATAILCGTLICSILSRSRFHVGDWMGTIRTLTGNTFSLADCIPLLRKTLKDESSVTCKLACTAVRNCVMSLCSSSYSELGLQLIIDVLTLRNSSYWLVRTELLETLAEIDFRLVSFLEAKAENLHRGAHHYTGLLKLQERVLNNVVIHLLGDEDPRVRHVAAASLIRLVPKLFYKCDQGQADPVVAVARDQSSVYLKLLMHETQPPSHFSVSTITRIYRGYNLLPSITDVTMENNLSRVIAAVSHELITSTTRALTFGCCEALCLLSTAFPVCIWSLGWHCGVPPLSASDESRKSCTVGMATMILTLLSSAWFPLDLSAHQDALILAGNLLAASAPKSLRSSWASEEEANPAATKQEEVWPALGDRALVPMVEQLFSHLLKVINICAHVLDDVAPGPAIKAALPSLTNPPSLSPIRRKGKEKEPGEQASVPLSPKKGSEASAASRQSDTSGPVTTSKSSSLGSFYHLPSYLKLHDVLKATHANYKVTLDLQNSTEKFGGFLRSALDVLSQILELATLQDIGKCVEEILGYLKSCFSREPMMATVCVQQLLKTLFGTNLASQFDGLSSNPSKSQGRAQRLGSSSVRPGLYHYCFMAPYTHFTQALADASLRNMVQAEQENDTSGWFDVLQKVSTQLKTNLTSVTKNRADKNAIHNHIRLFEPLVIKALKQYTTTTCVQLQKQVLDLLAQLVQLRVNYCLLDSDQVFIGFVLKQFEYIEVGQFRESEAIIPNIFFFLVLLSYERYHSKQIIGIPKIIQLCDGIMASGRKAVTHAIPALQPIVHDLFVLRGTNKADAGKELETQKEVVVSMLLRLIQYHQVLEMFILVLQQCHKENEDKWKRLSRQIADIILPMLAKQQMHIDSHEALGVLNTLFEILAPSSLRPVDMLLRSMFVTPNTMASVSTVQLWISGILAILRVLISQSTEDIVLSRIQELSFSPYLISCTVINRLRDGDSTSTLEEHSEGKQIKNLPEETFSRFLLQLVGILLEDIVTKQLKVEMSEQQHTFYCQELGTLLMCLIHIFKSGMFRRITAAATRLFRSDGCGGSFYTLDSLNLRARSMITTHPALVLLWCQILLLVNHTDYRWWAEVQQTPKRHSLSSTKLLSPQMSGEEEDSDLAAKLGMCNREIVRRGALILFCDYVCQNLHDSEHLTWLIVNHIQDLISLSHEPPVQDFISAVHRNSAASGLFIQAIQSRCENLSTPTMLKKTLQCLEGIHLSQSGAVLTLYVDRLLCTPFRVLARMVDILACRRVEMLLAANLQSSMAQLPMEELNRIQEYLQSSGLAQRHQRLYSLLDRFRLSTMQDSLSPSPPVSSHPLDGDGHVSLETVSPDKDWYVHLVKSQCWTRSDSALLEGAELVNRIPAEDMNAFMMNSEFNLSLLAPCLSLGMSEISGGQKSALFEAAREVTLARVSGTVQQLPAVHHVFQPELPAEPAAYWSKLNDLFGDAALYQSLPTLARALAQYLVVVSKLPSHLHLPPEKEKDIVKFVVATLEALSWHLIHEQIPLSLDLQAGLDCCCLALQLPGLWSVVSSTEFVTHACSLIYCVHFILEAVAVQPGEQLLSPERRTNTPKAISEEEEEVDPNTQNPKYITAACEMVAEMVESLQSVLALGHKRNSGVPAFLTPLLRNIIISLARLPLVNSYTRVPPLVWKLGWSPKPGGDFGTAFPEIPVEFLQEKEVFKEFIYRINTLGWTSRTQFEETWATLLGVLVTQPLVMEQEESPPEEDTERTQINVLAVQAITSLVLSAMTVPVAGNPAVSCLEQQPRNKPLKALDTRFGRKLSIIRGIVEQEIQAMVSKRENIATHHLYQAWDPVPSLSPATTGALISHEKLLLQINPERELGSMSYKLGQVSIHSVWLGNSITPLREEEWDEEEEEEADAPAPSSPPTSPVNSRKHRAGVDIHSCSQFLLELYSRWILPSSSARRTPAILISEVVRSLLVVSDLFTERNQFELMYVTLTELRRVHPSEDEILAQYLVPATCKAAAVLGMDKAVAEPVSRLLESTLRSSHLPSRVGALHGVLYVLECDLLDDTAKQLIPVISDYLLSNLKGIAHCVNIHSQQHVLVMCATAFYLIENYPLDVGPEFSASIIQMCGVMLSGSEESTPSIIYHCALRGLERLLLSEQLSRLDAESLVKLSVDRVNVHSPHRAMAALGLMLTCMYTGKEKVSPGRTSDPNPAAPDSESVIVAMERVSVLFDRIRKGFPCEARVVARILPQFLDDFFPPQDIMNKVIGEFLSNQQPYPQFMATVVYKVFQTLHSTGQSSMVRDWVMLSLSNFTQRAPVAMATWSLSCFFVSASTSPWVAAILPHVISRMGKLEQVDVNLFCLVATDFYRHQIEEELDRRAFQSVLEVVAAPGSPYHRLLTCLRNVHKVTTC

[3] = tested on: HeLa; assay: Cytotoxicity against human HeLa cells by MTT assay; type: cell-based
[4] = tested on: RAW264.7; assay: Cytotoxicity against mouse RAW264.7 cells by MTT assay; type: cell-based
[5] = molecular target: Huntingtin (Homo sapiens) (UniProt P42858); assay: Inhibition of N-terminal GFP-tagged Htt-exon1-Q103 (unknown origin) transfected in HEK293A cells assessed as reduction of Htt-Q103 aggregate formation at 50 uM after 3 days by fluorescence microscopic analysis; type: cell-based; conditions: HEK293-A
[6] = Solubility in water; type: physicochemical; conditions: buffer
[7] = molecular target: Huntingtin (Homo sapiens) (UniProt P42858); assay: Inhibition of N-terminal Htt-exon1-Q103 (unknown origin) transfected in mouse Neuro2a cells assessed as decrease in soluble and insoluble aggregate formation by Western blotting analysis; type: cell-based
[8] = tested on: Mus musculus; assay: Inhibition of mutated huntingtin aggregate formation in brain homogenate of R6/2 transgenic mouse at 0.4%, po by Western blotting analysis; type: functional, organism-based
[9] = tested on: Mus musculus; assay: Inhibition of mutated aggregate formation in brain homogenate of R6/2 transgenic mouse at 0.4%, po by Hoechst staining-based by immunohistochemistry; type: functional, organism-based
[10] = tested on: Mus musculus; assay: Toxicity in R6/2 transgenic mouse assessed as body weight loss at 0.4%, po measured on week 12; type: organism-based; conditions: in vivo
[11] = tested on: Mus musculus; assay: Neuroprotective activity in R6/2 transgenic mouse assessed as increase in mean survival time at 0.4%, po (reference value: 93 days); type: functional
[12] = molecular target: Huntingtin (Homo sapiens) (UniProt P42858); assay: Inhibition of N-terminal GFP-tagged Htt-exon1-Q103 (unknown origin) transfected in Neuro2a cells assessed as reduction of Htt-Q103 aggregate formation at 100 uM by fluorescence microscopic analysis; type: cell-based
[13] = tested on: Mus musculus; assay: Toxicity in R6/2 transgenic mouse assessed as increase in body weight at 0.4%, po measured up to 9 weeks; type: organism-based; conditions: in vivo, 1512 h
[14] = molecular target: Huntingtin (Homo sapiens) (UniProt P42858); assay: Inhibition of N-terminal GFP-tagged Htt-exon1-Q103 (unknown origin) transfected in HEK293A cells assessed as reduction of Htt-Q103 aggregate formation by filter trap assay; type: cell-based; conditions: HEK293-A
[15] = tested on: Mus musculus; assay: Inhibition of mutated huntingtin aggregate formation in liver homogenate of R6/2 transgenic mouse at 0.4%, po after 4 to 8 weeks by Western blotting analysis; type: functional, organism-based
[16] = molecular target: Huntingtin (Homo sapiens) (UniProt P42858); assay: Inhibition of N-terminal Htt-exon1-Q103 (unknown origin) transfected in HEK293A cells at 50 uM by Western blotting analysis; type: cell-based; conditions: HEK293-A
[17] = tested on: Mus musculus; assay: Neuroprotective activity in R6/2 transgenic mouse assessed as reduction of foot-clasping posture at 0.4%, po measured on week 8; type: functional, organism-based
[18] = tested on: Mus musculus; assay: Neuroprotective activity in R6/2 transgenic mouse assessed as increased locomotory activity at 0.4%, po measured for 20 mins; type: functional, organism-based
[19] = tested on: Mus musculus; assay: Neuroprotective activity in wild type mouse assessed as behavioral pattern at 0.4%, po; type: ADME, organism-based; conditions: in vivo
[20] = tested on: Mus musculus; assay: Neuroprotective activity in R6/2 transgenic mouse assessed as improved motor coordination and balance at 0.4%, po measured up to 8 weeks by rotarod test; type: functional, organism-based
[21] = tested on: Brain; assay: Biodistribution in C57BL/6 mouse brain at 454 mg/kg, po after 24 hrs by fluorescence microscopic analysis; type: ADME, organism-based; set-up: dose 454 mg/kg, route oral; conditions: in vivo
[22] = Cellular uptake in cytoplasm of human HeLa cells at 10 uM after 10 mins by confocal microscopic analysis in presence mitotracker; type: ADME, cell-based
[23] = tested on: Spleen; assay: Biodistribution in C57BL/6 mouse spleen at 454 mg/kg, po after 24 hrs by fluorescence microscopic analysis; type: ADME, organism-based; set-up: dose 454 mg/kg, route oral; conditions: in vivo
[24] = tested on: Mus musculus; assay: Toxicity in C57BL/6 mouse at 454 mg/kg, po; type: organism-based; set-up: dose 454 mg/kg, route oral; conditions: in vivo
[25] = tested on: HeLa; assay: Cellular uptake in human HeLa cells at 5 to 10 uM after 10 mins by FACS analysis; type: ADME, cell-based
[26] = Cellular uptake in cytoplasm of human HeLa cells at 1 uM up to 1 hr by confocal microscopic analysis; type: ADME, cell-based
[27] = tested on: Brain; assay: Biodistribution in C57BL/6 mouse brain at 90.9 mg/kg, ip after 60 mins by fluorescence microscopic analysis; type: ADME, organism-based; set-up: dose 90.9 mg/kg, route intraperitoneal; conditions: in vivo, 1 h
[28] = tested on: Mus musculus; assay: Toxicity in C57BL/6 mouse at 90.9 mg/kg, ip; type: organism-based; set-up: dose 90.9 mg/kg, route intraperitoneal; conditions: in vivo
[29] = tested on: Kidney; assay: Biodistribution in C57BL/6 mouse kidney at 90.9 mg/kg, ip after 60 mins by fluorescence microscopic analysis; type: ADME, organism-based; set-up: dose 90.9 mg/kg, route intraperitoneal; conditions: in vivo, 1 h
[30] = Cellular uptake in nucleus of human HeLa cells at 1 uM up to 1 hr by confocal microscopic analysis; type: ADME, cell-based
[31] = molecular target: Huntingtin (Homo sapiens) (UniProt P42858); assay: Inhibition of N-terminal GFP-tagged Htt-exon1-Q103 (unknown origin) transfected in HEK293A cells assessed as reduction of Htt-Q103 aggregate formation at 200 uM by filter trap assay; type: cell-based; conditions: HEK293-A
[32] = tested on: Mus musculus; assay: Inhibition of mutated huntingtin aggregate formation in liver homogenate of R6/2 transgenic mouse at 1%, po after 4 to 8 weeks by Western blotting analysis; type: functional, organism-based
[33] = tested on: Mus musculus; assay: Neuroprotective activity in R6/2 transgenic mouse assessed as increased mean survival time at 1%, po (reference value: 93 days); type: functional
[34] = tested on: Mus musculus; assay: Toxicity in R6/2 transgenic mouse assessed as body weight loss at 1%, po measured on week 12; type: organism-based; conditions: in vivo
[35] = tested on: Mus musculus; assay: Inhibition of mutated aggregate formation in brain homogenate of R6/2 transgenic mouse at 1%, po by Hoechst staining-based by immunohistochemistry; type: functional, organism-based

SMILES: Cl.N=C(N)NCCCCCC(=O)OC[C@H]1O[C@H](O[C@H]2O[C@H](COC(=O)CCCCCNC(=N)N)[C@@H](OC(=O)CCCCCNC(=N)N)[C@H](OC(=O)CCCCCNC(=N)N)[C@H]2OC(=O)CCCCCNC(=N)N)[C@H](OC(=O)CCCCCNC(=N)N)[C@@H](OC(=O)CCCCCNC(=N)N)[C@@H]1OC(=O)CCCCCNC(=N)N
- IC50 [1]: < 100 µM
- inhibition [2]: inactive
- IC50 [3]: < 100 µM
- IC50 [4]: < 100 µM
- inhibition [5]: inactive
- solubility [6]: soluble

SMILES: Cl.N=C(N)NCCCCCC(=O)O[C@@H]1[C@@H](OC(=O)CCCCCNC(=N)N)[C@@H](O[C@H]2O[C@H](CO)[C@@H](OC(=O)CCCCCNC(=N)N)[C@H](OC(=O)CCCCCNC(=N)N)[C@H]2OC(=O)CCCCCNC(=N)N)O[C@H](CO)[C@H]1OC(=O)CCCCCNC(=N)N
- inhibition [7]: Dose-dependent effect
- inhibition [8]: Active
- inhibition [9]: Active
- Activity [10]: 14%
- MSD [11]: 98.5 days
- inhibition ([12]; TDE = time-dependent effect): tde
- IC50 [1]: > 100 µM
- inhibition [2]: inactive
- IC50 [3]: > 100 µM
- Activity [13]: Non-toxic
- inhibition [14]: Dose-dependent effect
- inhibition [15]: Active
- inhibition [16]: Active
- IC50 [4]: > 100 µM
- Activity [17]: Active
- inhibition [5]: Active
- Activity [18]: Active
- solubility [6]: soluble
- Activity [19]: Non-toxic
- Activity [20]: Active

SMILES: Cl.N=C(N)NCCCCCC(=O)O[C@@H]1[C@@H](OC(=O)CCCCCNC(=N)N)[C@@H](O[C@H]2O[C@H](COC(=O)CCCCCNC(=S)Nc3ccc(-c4c5ccc(=O)cc-5oc5cc(O)ccc45)c(C(=O)O)c3)[C@@H](OC(=O)CCCCCNC(=N)N)[C@H](OC(=O)CCCCCNC(=N)N)[C@H]2OC(=O)CCCCCNC(=N)N)O[C@H](COC(=O)CCCCCNC(=S)Nc2ccc(-c3c4ccc(=O)cc-4oc4cc(O)ccc34)c(C(=O)O)c2)[C@H]1OC(=O)CCCCCNC(=N)N
- Drug uptake [21]: Active
- Drug uptake [22]: Active
- Drug uptake [23]: Active
- Activity [24]: Non-toxic
- Drug uptake [25]: Active
- Drug uptake [26]: Active
- Drug uptake [27]: Active
- solubility [6]: soluble
- Activity [28]: Non-toxic
- Drug uptake [29]: Active
- Drug uptake [30]: Active

SMILES: OC[C@H]1O[C@H](O[C@H]2O[C@H](CO)[C@@H](O)[C@H](O)[C@H]2O)[C@H](O)[C@@H](O)[C@@H]1O [TREHALOSE]
- inhibition [31]: inactive
- inhibition [12]: inactive
- inhibition [32]: Active
- MSD [33]: 94.5 days
- Activity [34]: 25%
- inhibition [5]: inactive
- inhibition [35]: Active
